# Target: T1, wild-type hBACE1 in CHO-K1 cells (Homo sapiens, UniProt P56817)
# T1 construct: expressed in transfected cells; host or cells: CHO-K1
# Assay: Single molecule TIRF microscopy and bleaching step analysis in CHO-K1 cells
# Type: cell-based
# Settings: 200 nM probe, fixed CHO-K1, TIRF, after rolling background subtraction
# Description: Due to the high photostability and quantum yield of the Alexa dyes, the C3-compounds are potential tools for single molecule fluorescence microscopy of BACE1. […] CHO-K1 cells were transfected with wild-type BACE1. […] The samples were then recorded using total internal reflection fluorescence (TIRF) microscopy. […] Prior to analysis, ImageJ rolling background subtraction was applied[45] (Figure 6A, right panel). […] Single particles were identified and time traces of fluorescence intensity were extracted using GMimPro[46] (Figure 6B). The time traces were then subjected to a bleaching-step analysis with quickPBSA[47] (Figure 6B). […] The msfGFP was reported previously to display a fluorescence probability of about 50%, defined as combined probability of fluorescence, detection in the specific imaging system and identification in the analysis of a BACE1 molecule.[48] […] Here, the best fits indicated also a fluorescence probability of about 60%, but with a considerably lower fit error compared to dimers only (Figure 6D, blue traces).
# The panel in the middle depicts typical single molecule complexes 48 h after transfection with 50 ng wild type BACE1. […] The insets highlight single fluorescence spots at higher magnification. […] (B) Single fluorescence spots were located and fluorescence intensities over time were extracted (see methods). […]
# T1 sequence (P56817 46-501): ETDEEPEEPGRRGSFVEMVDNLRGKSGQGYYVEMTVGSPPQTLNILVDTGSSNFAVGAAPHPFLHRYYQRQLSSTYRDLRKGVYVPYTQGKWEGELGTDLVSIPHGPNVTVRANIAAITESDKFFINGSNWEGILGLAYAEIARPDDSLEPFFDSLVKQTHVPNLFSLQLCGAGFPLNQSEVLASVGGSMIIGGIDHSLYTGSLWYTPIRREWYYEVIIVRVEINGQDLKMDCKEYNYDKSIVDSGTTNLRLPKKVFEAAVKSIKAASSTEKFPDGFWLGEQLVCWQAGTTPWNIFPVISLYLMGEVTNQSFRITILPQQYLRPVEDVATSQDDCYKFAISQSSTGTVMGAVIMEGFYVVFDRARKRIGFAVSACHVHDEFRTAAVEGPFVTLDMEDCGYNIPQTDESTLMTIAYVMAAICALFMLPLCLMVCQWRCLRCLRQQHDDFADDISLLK
smiles,measurement,value
"C[C@@H](NC(=O)c1cc(C(=O)N[C@@H](Cc2ccccc2)[C@H](O)CNC2CC2)cc(N(C)S(=O)(=O)CCCNC(=O)c2ccc(C(=O)O)c(-c3c4ccc(=N)c(S(=O)(=O)O)c-4oc4c(S(=O)(=O)O)c(N)ccc34)c2)c1)c1ccccc1 [2-(6-Amino-3-iminio-4,5-disulfo-3H-xanthen-9-yl)-4-((3-(N-(3-(((2S,3R)-4-(cyclopropylamino)-3-hydroxy-1-phenylbutan-2-yl)carbamoyl)-5-(((R)-1-phenylethyl)carbamoyl)phenyl)-N-methylsulfamoyl)propyl)carbamoyl)benzoate]",signal-to-background ratio,4.8

# — PMC11215771 (Journal of Medicinal Chemistry, 2024)
